In patent US11371055B2, “Herbicide resistance genes” (CORTEVA AGRISCIENCE LLC, priority 2005, dated 2022):

What was measured:
[1] = system: F1 stack of AAD-12 (v1) (pDAB4101) and BE1146RR corn; assay: Herbicide tolerance of F1 stack AAD-12 (v1) x BE1146RR corn; format: in vivo, Zea mays; conditions: 1120 g ae/ha 2,4-D DMA
Source text: (§1) AAD-12 (v1) (pDAB4101) and elite Roundup Ready inbred (BE1146RR) were reciprocally crossed and F1 seed was collected. The seed from two F1 lines were planted and treated with 70 g ae/ha imazethapyr at the V2 stage to eliminate nulls. To the surviving plants, reps were separated and either treated with 1120 g ae/ha 2,4-D DMA+70 g ae/ha imazethapyr (to confirm presence of AHAS gene) or 1120 g ae/ha 2,4-D DMA+1680 g ae/ha glyphosate (to confirm the presence of the Round Up Ready gene) in a track sprayer calibrated to 187 L/ha. Plants were graded 3 and 16 DAT.

[2] = system: Untransformed Control corn; assay: Herbicide tolerance of untransformed control corn in the F1 stack test; format: in vivo, Zea mays; conditions: 1120 g ae/ha 2,4-D DMA
Source text: as §1

[3] = system: PHL tobacco suspension co-cultivated with Agrobacterium carrying pDAB724; assay: Tobacco cell transformation with AAD-12 (v1) and 2,4-D selection; format: cell-based
Protocol: For tobacco transformation experiment, there were 11 treatments altogether: a control set plated on LS-BY2C+dichlorprop medium, and 10 sets of LSBY2C+dichlorprop+2,4-D at varying concentration levels (1, 2, 3, 5, 8, 10, 12, 15, 18, 20 mg/L). There were four replications per treatment. The plasmid DNA vector used was pDAB724, and the vector used for transformation was EHA101S strain of Agrobacterium tumefaciens. Four ml of PHL suspension at 0.6 OD^660 were mixed with 100 ul of Agrobacterium (either EHA101 or LBA4404 strains) suspension at 1.0 OD^660 in a sterile Petri plate and were mixed thoroughly and co-cultivated together in a non-shake condition at a dark growth chamber for 3 days at 25° C. After the co-cultivation period 1.5 ml of the Agro-tobacco suspension mixture was plated to the 11 set of plates above. […] Again, there were four replicates per treatment, as well as a positive and negative control. All media contain 500 mg/L Carbenicillin (C) to control to contain Agrobacterium growth in the selection media.
The plasmid used in these experiments is pDAB724 and it has PAT selectable marker as well. So, control transformation experiments were initiated using R-dichlorprop habituated PHL in the presence of 10 mg/L bialophos following the standard protocol described above. […]

[4] = system: AAD-12 (v1) T0 Maverick soybean plants; assay: 2,4-D leaf paint (leaf flip assay) on T0 soybean; format: in vivo, Glycine max; design: key to Leaf flip assay (18 HAT) Node N-1 / Leaf flip assay (18 HAT) Node N-2: 1 = Flip; 0 = No Flip; conditions: for Leaf flip assay (18 HAT) Node N-1 / Leaf flip assay (18 HAT) Node N-2: 2,4-D leaf paint
Source text: Plants that are transferred to the greenhouse can be assayed for the presence of an active PAT gene further with a non-destructive manner by painting a section of leaf of the T0 primary transformant, or progeny thereof, with a glufosinate solution [0.05-2% v/v Liberty Herbicide, preferably 0.25-1.0% (v/v),=500-2000 ppm glufosinate, Bayer Crop Science]. Depending on the concentration used, assessment for glufosinate injury can be made 1-7 days after treatment. Plants can also be tested for 2,4-D tolerance in a non-destructive manner by selective application of a 2,4-D solution in water (0.25-1% v/v commercial 2,4-D dimethylamine salt formulation, preferably 0.5% v/v=2280 ppm 2,4-D ae) to the terminal leaflet of the newly expanding trifoliolate one or two, preferably two, nodes below the youngest emerging trifolioate. This assay allows assessment of 2,4-D sensitive plants 6 hours to several days after application by assessment of leaf flipping or rotation >90 degrees from the plane of the adjacent leaflets. Plants tolerant to 2,4-D will not respond to 2,4-D. To plants will be allowed to self fertilize in the greenhouse to give rise to T1 seed. T1 plants (and to the extent enough T0 plant clones are produced) will be sprayed with a range of herbicide doses to determine the level of herbicide protection afforded by AAD-12 (v1) and PAT genes in transgenic soybean. Rates of 2,4-D used on T0 plants will typically comprise one or two selective rates in the range of 100-1120 g ae/ha using a track sprayer as previously described. T1 plants will be treated with a wider herbicide dose ranging from 50-3200 g ae/ha 2,4-D. Likewise, T0 and T1 plants can be screened for glufosinate resistance by postemergence treatment with 200-800 and 50-3200 g ae/ha glufosinate, respectively. Glyphosate resistance (in plants transformed with constructs that contain EPSPS) or another glyphosate tolerance gene can be assessed in the T1 generation by postemergence applications of glyphosate with a dose range from 280-2240 g ae/ha glyphosate. Analysis of protein expression will occur as described in below. Individual T0 plants were assessed for the presence of the coding region of the gene of interest (AAD-12 (v1) or PAT v6) and copy number. Determination of the inheritance of AAD-12 (v1) will be made using T1 and T2 progeny segregation with respect to herbicide tolerance as described in previous examples.
A subset of the initial transformants were assessed in the T0 generation according to the methods above. […] PAT-only transformed plants responded the same at wildtype plants to leaf paint applications of 2,4-D

T1 AAD-1 (v3) tobacco = assay: Elevated 2,4-D DMA rates in greenhouse tobacco, AAD-1; format: in vivo, Nicotiana tabacum
Source text: T1 AAD-12 (v1) plants from an event segregating 3R:1S when selected with 560 g ai/ha Liberty using the same protocol as previously described. T1 AAD-1 (v3) seed was also planted for transformed tobacco controls (see PCT/US2005/014737). Untransformed KY160 was served as the sensitive control. Plants were sprayed using a track sprayer set to 187 L/ha at 140, 560, 2240, 8960, and 35840 g ae/ha 2,4-D DMA and rated 3 and 14 DAT.

In the case of `CNC.O=C(O)COc1ccc(Cl)cc1Cl` [2,4-D DMA], the “Average % Injury 16DAT” value ([1]; AAD-12 (v1) pDAB4101(0)003.R003.AF) is reported as 0%, the “Average % Injury 16DAT” value ([1]; AAD-12 (v1) pDAB4101(0)005.R001.AF) is reported as 0% and the “Average % Injury 16DAT” value [2] is reported as 21%.

In the case of `O=C(O)COc1ccc(Cl)cc1Cl` [2,4-D, 2,4-dichlorophenoxyacetic acid], the “2,4-D concentration beyond which bulked AAD-12 (v1) callus did not grow” value ([3]; 20, 40, 60, 80, 100, and 120 mg/L 2,4-D tested) is reported as ≤ 20 mg/L, the “sub-lethal concentration of 2,4-D (above it lethal to the non-transformed cells)” value ([3]; LS-BY2C+dichlorprop medium) is reported as 10 mg/L and the “Leaf flip assay (18 HAT) Node N-1” value ([4]; event D-1-14 (pDAB4464, AAD-12, CsVMV)) is reported as 0. For the same compound, the “Leaf flip assay (18 HAT) Node N-2” value ([4]; event D-2-9 (pDAB4464, AAD-12, CsVMV)) was 0, the “Leaf flip assay (18 HAT) Node N-2” value ([4]; event D-2-14 (pDAB4464, AAD-12, CsVMV)) was 0 and the “Leaf flip assay (18 HAT) Node N-2” value ([4]; event D-3-5 (pDAB4468, AAD-12, AtUbi10)) was 0. The “Leaf flip assay (18 HAT) Node N-1” value ([4]; event D-3-6 (pDAB4468, AAD-12, AtUbi10)) was 0, the “Leaf flip assay (18 HAT) Node N-2” value ([4]; event D-3-7 (pDAB4468, AAD-12, AtUbi10)) was 0 and the “Leaf flip assay (18 HAT) Node N-2” value ([4]; event D-3-9 (pDAB4468, AAD-12, AtUbi10)) was 0. The “Leaf flip assay (18 HAT) Node N-2” value ([4]; event D-4-11B (pDAB4468, AAD-12, AtUbi10)) was 0, the “Leaf flip assay (18 HAT) Node N-2” value ([4]; event D-4-16 (pDAB4468, AAD-12, AtUbi10)) was 0 and the “Leaf flip assay (18 HAT) Node N-2” value ([4]; event D-4-17 (pDAB4468, AAD-12, AtUbi10)) was 0. The “Leaf flip assay (18 HAT) Node N-1” value ([4]; event D-5-2 (pDAB4472, AAD-12, AtUbi3)) was 0, the “Leaf flip assay (18 HAT) Node N-2” value ([4]; event D-9-1 (pDAB4480, AAD-12, AtAct2)) was 0 and the “response to 2,4-D leaf painting” value ([4]; 2,4-D solution applied to terminal leaflet) was “did not respond”. For the same compound, the “Average % injury 14 DAT” value (T1 AAD-1 (v3) tobacco; 2240 g ae/ha 2,4-D) was 4%, the “Average % injury 14 DAT” value (T1 AAD-1 (v3) tobacco; 8960 g ae/ha 2,4-D) was 9% and the “Average % injury 14 DAT” value (T1 AAD-1 (v3) tobacco; 35840 g ae/ha 2,4-D) was 32%.
